Where no end group is shown, it is not given here.
Legend:
anti-SARS-CoV sera IgG = format: binding, human
[1] = test system: anti-SARS-CoV antibody in human sera; format: binding
[2] = test system: cat anti-feline coronavirus sera; format: binding
[3] = test system: chicken anti-avian infectious bronchitis virus (IBV) sera; format: binding
[4] = test system: IgM specific to SARS-COV N1; format: binding, human

FVASFRLFAR (SARS Coronavirus) [GA203]
detection of SARS-COV antibody (IgG) in patient #51 (anti-SARS-CoV sera IgG): can be detected
time dependency of antibody binding (time dependent epitopes) (anti-SARS-CoV sera IgG): immediate early (days 1-6)

(KHWPQIAQFA)8K4K2K-βA (also: octameric MAP: 8 copies on K4K2K lysine core with C-terminal βAla) [GA155]
serum binding during treatment versus recovery period (inflammation epitopes) [1]: more strongly during the treatment than during the recovery period
response ratio R/T [2]: 8/8
response ratio R/T [3]: 2/3

(GSITAQPVKI)8K4K2K-βA (also: octameric MAP: 8 copies on K4K2K lysine core with C-terminal βAla) [GA186]
cross reaction with chicken anti-IBV antiserum [3]: cross reacted only but weakly

(LQLPQGTTLP)8K4K2K-βA (also: octameric MAP: 8 copies on K4K2K lysine core with C-terminal βAla) [GA154]
detection of SARS-COV antibody (IgM) in patient #51 [4]: can be detected

(PPTEPKKDKK)8K4K2K-βA (also: octameric MAP: 8 copies on K4K2K lysine core with C-terminal βAla) [GA168]
detection of SARS-COV antibody (IgG) in patient #51 (anti-SARS-CoV sera IgG): can be detected
time dependency of antibody binding (time dependent epitopes) (anti-SARS-CoV sera IgG): immediate early (days 1-6)

(QPTVTLLPAA)8K4K2K-βA (also: octameric MAP: 8 copies on K4K2K lysine core with C-terminal βAla) [GA173]
cross reaction with chicken anti-IBV antiserum [3]: cross reacted only but weakly

(GTSWFITQRN)8K4K2K-βA (also: octameric MAP: 8 copies on K4K2K lysine core with C-terminal βAla) [GA129]
AbT [2]: > 1
response ratio R/T [2]: 5/6

(HGAIKLDDKD)8K4K2K-βA (also: octameric MAP: 8 copies on K4K2K lysine core with C-terminal βAla) [GA162]
time dependency of antibody binding (time dependent epitopes) (anti-SARS-CoV sera IgG): early (days 7-29)

(KKTDEAQPLP)8K4K2K-βA (also: octameric MAP: 8 copies on K4K2K lysine core with C-terminal βAla) [GA170]
detection of SARS-COV antibody (IgG) in patient #51 (anti-SARS-CoV sera IgG): can be detected
time dependency of antibody binding (time dependent epitopes) (anti-SARS-CoV sera IgG): immediate early (days 1-6)
Responder (AT>1, positive)/Total samples (R/T) [1]: 10/10
Responder/Total samples (R/T) value [1]: 0
share of group 2 regarded as probable SARS patients (17 of 23 cases) [1]: 74%
response ratio R/T [2]: 0/8
cross reaction with chicken anti-IBV antiserum [3]: cross reacted only but weakly

(ASLPYGANKE)8K4K2K-βA (also: octameric MAP on K4K2K lysine core with C-terminal βAla) [GA146]
serum binding during treatment versus recovery period (inflammation epitopes) [1]: more strongly during the treatment than during the recovery period

(IITTDNTFVS)8K4K2K-βA (also: octameric MAP: 8 copies on K4K2K lysine core with C-terminal βAla) [GA132]
serum binding during treatment versus recovery period (inflammation epitopes) [1]: more strongly during the treatment than during the recovery period

(IGYYRRATRR)8K4K2K-βA (also: octameric MAP: 8 copies on K4K2K lysine core with C-terminal βAla) [GA139]
serum binding during treatment versus recovery period (inflammation epitopes) [1]: more strongly during the treatment than during the recovery period

(YNYKYRYLRH)8K4K2K-βA (also: octameric MAP: 8 copies on K4K2K lysine core with C-terminal βAla) [GA101]
serum binding during treatment versus recovery period (inflammation epitopes) [1]: more strongly during the treatment than during the recovery period
response ratio R/T [2]: 8/8
response ratio R/T [3]: 3/3

(GNCDVVIGII)8K4K2K-βA (also: octameric MAP: 8 copies on K4K2K lysine core with C-terminal βAla) [GA134]
serum binding during treatment versus recovery period (inflammation epitopes) [1]: more strongly during the treatment than during the recovery period

(APATVCGPKL)8K4K2K-βA (also: octameric MAP on K4K2K lysine core with C-terminal βAla) [GA115]
cross reaction with chicken anti-IBV antiserum [3]: cross reacted only but weakly

(IAQFAPSASA)8K4K2K-βA (also: octameric MAP: 8 copies on K4K2K lysine core with C-terminal βAla) [GA156]
serum binding during treatment versus recovery period (inflammation epitopes) [1]: more strongly during the treatment than during the recovery period

MSRRRLLACL (SARS Coronavirus) [GA230]
detection of SARS-COV antibody (IgG) in patient #51 (anti-SARS-CoV sera IgG): can be detected
time dependency of antibody binding (time dependent epitopes) (anti-SARS-CoV sera IgG): immediate early (days 1-6)

(LSPRWYFYYL)8K4K2K-βA (also: octameric MAP: 8 copies on K4K2K lysine core with C-terminal βAla) [GA143]
serum binding during treatment versus recovery period (inflammation epitopes) [1]: more strongly during the treatment than during the recovery period

(KYFKNHTSPD)8K4K2K-βA (also: octameric MAP: 8 copies on K4K2K lysine core with C-terminal βAla) [GA287]
time dependency of antibody binding (time dependent epitopes) (anti-SARS-CoV sera IgG): immediate early (days 1-6)

(FFGMSRIGME)8K4K2K-βA (also: octameric MAP on K4K2K lysine core with C-terminal βAla) [GA158]
serum binding during treatment versus recovery period (inflammation epitopes) [1]: more strongly during the treatment than during the recovery period
response ratio R/T [2]: 8/8
response ratio R/T [3]: 3/3

(RNPNNNAATV)8K4K2K-βA (also: octameric MAP: 8 copies on K4K2K lysine core with C-terminal βAla) [GA152]
detection of SARS-COV antibody (IgG) in patient #51 (anti-SARS-CoV sera IgG): can be detected
time dependency of antibody binding (time dependent epitopes) (anti-SARS-CoV sera IgG): immediate early (days 1-6)
detection of SARS-COV antibody (IgM) in patient #51 [4]: can be detected
Responder (AT>1, positive)/Total samples (R/T) [1]: 10/10
Responder/Total samples (R/T) value [1]: 0
share of group 2 regarded as probable SARS patients (17 of 23 cases) [1]: 74%
response ratio R/T [2]: 0/8
cross reaction with chicken anti-IBV antiserum [3]: did not cross react

(NAATVLQLPQ)8K4K2K-βA (also: octameric MAP: 8 copies on K4K2K lysine core with C-terminal βAla) [GA153]
detection of SARS-COV antibody (IgM) in patient #51 [4]: can be detected

(QRQKKQPTVT)8K4K2K-βA (also: octameric MAP: 8 copies on K4K2K lysine core with C-terminal βAla) [GA172]
response ratio R/T [2]: 8/8
response ratio R/T [3]: 3/3

(LRIPVTAEVGSSYFK)8K4K2K-βA (also: octameric MAP: 8 copies on K4K2K lysine core with C-terminal βAla) [GA6, control polypeptide, WSSV VP28 52-66]
response ratio R/T [2]: 8/8
response ratio R/T [3]: 1/3

(GANKEGIVWV)8K4K2K-βA (also: octameric MAP on K4K2K lysine core with C-terminal βAla) [GA147]
serum binding during treatment versus recovery period (inflammation epitopes) [1]: more strongly during the treatment than during the recovery period
response ratio R/T [3]: 1/3

(INTNSGPDDQ)8K4K2K-βA (also: octameric MAP: 8 copies on K4K2K lysine core with C-terminal βAla) [GA137]
serum binding during treatment versus recovery period (inflammation epitopes) [1]: more strongly during the treatment than during the recovery period

(RINWVTGGIA)8K4K2K-βA (also: octameric MAP: 8 copies on K4K2K lysine core with C-terminal βAla) [GA179]
serum binding during treatment versus recovery period (inflammation epitopes) [1]: more strongly during the treatment than during the recovery period
response ratio R/T [2]: 7/8
response ratio R/T [3]: 3/3

NYKYRYLRHGKLRPFERDISNVPFS [GA91]
response ratio R/T [2]: 6/8

(ASVVNIQKEI)8K4K2K-βA (also: octameric MAP on K4K2K lysine core with C-terminal βAla) [GA291]
time dependency of antibody binding (time dependent epitopes) (anti-SARS-CoV sera IgG): immediate early (days 1-6)

(RVDFCGKGYH)8K4K2K-βA (also: octameric MAP: 8 copies on K4K2K lysine core with C-terminal βAla) [GA117]
serum binding during treatment versus recovery period (inflammation epitopes) [1]: more strongly during the treatment than during the recovery period
response ratio R/T [2]: 6/8
response ratio R/T [3]: 1/3

(GKMKELSPRW)8K4K2K-βA (also: octameric MAP on K4K2K lysine core with C-terminal βAla) [GA142]
serum binding during treatment versus recovery period (inflammation epitopes) [1]: more strongly during the treatment than during the recovery period

(DHIGTRNPNN)8K4K2K-βA (also: octameric MAP on K4K2K lysine core with C-terminal βAla) [GA151]
detection of SARS-COV antibody (IgG) in patient #51 (anti-SARS-CoV sera IgG): can be detected
time dependency of antibody binding (time dependent epitopes) (anti-SARS-CoV sera IgG): immediate early (days 1-6)
detection of SARS-COV antibody (IgM) in patient #51 [4]: can be detected
Responder (AT>1, positive)/Total samples (R/T) [1]: 10/10
Responder/Total samples (R/T) value [1]: 0
share of group 2 regarded as probable SARS patients (17 of 23 cases) [1]: 74%
AbT [2]: 2.9
response ratio R/T [2]: 1/8
cross reaction with chicken anti-IBV antiserum [3]: did not cross react

LLACLCKHKK (SARS Coronavirus) [GA231]
detection of SARS-COV antibody (IgG) in patient #51 (anti-SARS-CoV sera IgG): can be detected
time dependency of antibody binding (time dependent epitopes) (anti-SARS-CoV sera IgG): immediate early (days 1-6)
serum binding during treatment versus recovery period (inflammation epitopes) [1]: more strongly during the treatment than during the recovery period

(RYLRHGKLRP)8K4K2K-βA (also: octameric MAP: 8 copies on K4K2K lysine core with C-terminal βAla) [GA102]
serum binding during treatment versus recovery period (inflammation epitopes) [1]: more strongly during the treatment than during the recovery period
response ratio R/T [2]: 8/8
response ratio R/T [3]: 2/3

— patent US20050106563A1 (Genesis Biotech Inc., priority 2003, published 2005)
